Molecules are shown by their SMILES. Where only a bound is given, the exact number is not on record here.

The values below come from US20250034167A1, “HETEROCYCLIC COMPOUNDS AND METHODS OF USE” (AMGEN INC., priority 2021, published 2025).

In assay [1] the test system is Phosphorylation of ERK1/2 in AsPC-1 cells. As to the kind of experiment: Phospho-ERK1/2 MSD Assay. In kind it is cell-based. The note with it: Homo sapiens, ASPC1, 2 h, read-out: 2 h p-ERK (AsPC-1 cells), IC50, AsPC-1 cells, 2 h compound treatment. As for the experimental part:
Sixteen hours prior to compound treatment, AsPC-1 cells were seeded in 96-well cell culture plates at a density of 25,000 cells/well and incubated at 37° C., 5% CO2. A compound dose-response titration was diluted in growth media, added to appropriate wells of a cell culture plate, and then incubated at 37° C., 5% CO2 for 2 hours.

In assay [2] the target is His-tagged KRAS G12D protein (Homo sapiens, UniProt P01116, G12D). As to the kind of experiment: biochemical.
His-tagged KRAS G12D protein, sequence (P01116 1-188 isoform P01116-2 G12D): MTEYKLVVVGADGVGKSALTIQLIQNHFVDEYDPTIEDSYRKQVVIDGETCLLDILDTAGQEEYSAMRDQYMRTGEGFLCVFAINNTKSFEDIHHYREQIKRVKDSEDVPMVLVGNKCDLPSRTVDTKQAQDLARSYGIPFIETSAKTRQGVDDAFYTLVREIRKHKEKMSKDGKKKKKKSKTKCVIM
Description: The plate was incubated for 30 minutes at room temperature. Biotinylated KRPep-2d substrate (Amgen) was diluted to nM in Assay Buffer and 2 μL was added to all wells and incubated for 1 hour at room temperature. Detection Reagent (0.4 nM LANCE Eu-W1024 Anti-6×His (Perkin Elmer AD0401), 5 nM streptavidin-d2 (Cisbio 610SADLA)) was prepared in Assay Buffer, then 4 µL was added to the plate and incubated for 1 hour at room temperature.

As usually defined, the IC50 is the point on the concentration scale where inhibition reaches its midpoint. Regarding `CCc1c(F)ccc2cc(O)cc(-c3ncc4c(N5CCC(C(N)=O)CC5)nc(OC[C@@]56CCCN5C[C@H](F)C6)nc4c3F)c12` [Example 6, 1-(7-(8-Ethyl-7-fluoro-3-hydroxynaphthalen-1-yl)-8-fluoro-2-(((2R,7aS)-2-fluorotetrahydro-1H-pyrrolizin-7a(5H)-yl)methoxy)pyrido[4,3-d]pyrimidin-4-yl)piperidine-4-carboxamide], the values for the half-maximal inhibitory concentration (IC50) in assay [1] and in assay [2] were above 10000 nM and 55 nM, respectively.

For `CCc1c(F)ccc2cc(O)cc(-c3ncc4c(N5CCC[C@H](S(N)(=O)=O)C5)nc(OC[C@@]56CCCN5C[C@H](F)C6)nc4c3F)c12` [Example 7, (S)-1-(7-(8-Ethyl-7-fluoro-3-hydroxynaphthalen-1-yl)-8-fluoro-2-(((2R,7aS)-2-fluorotetrahydro-1H-pyrrolizin-7a(5H)-yl)methoxy)pyrido[4,3-d]pyrimidin-4-yl)piperidine-3-sulfonamide], the IC50 in assay [1] was above 10000 nM; in assay [2], 37 nM.

`CCc1c(F)ccc2cc(O)cc(-c3ncc4c(N5CC(CC(N)=O)C5)nc(OC[C@@]56CCCN5C[C@H](F)C6)nc4c3F)c12` [Example 8, 2-(1-(7-(8-Ethyl-7-fluoro-3-hydroxynaphthalen-1-yl)-8-fluoro-2-(((2R,7aS)-2-fluorotetrahydro-1H-pyrrolizin-7a(5H)-yl)methoxy)pyrido[4,3-d]pyrimidin-4-yl)azetidin-3-yl)acetamide]: the results for the IC50 in assay [1] and in assay [2] were above 10000 nM and 82 nM, respectively.

With `CCc1c(F)ccc2cc(O)cc(-c3ncc4c(N5CC6CC(O)C6C5)nc(OC[C@@]56CCCN5C[C@H](F)C6)nc4c3F)c12` (stereo partly drawn) [Example 9, 3-(7-(8-Ethyl-7-fluoro-3-hydroxynaphthalen-1-yl)-8-fluoro-2-(((2R,7aS)-2-fluorotetrahydro-1H-pyrrolizin-7a(5H)-yl)methoxy)pyrido[4,3-d]pyrimidin-4-yl)-3-azabicyclo[3.2.0]heptan-6-ol], the IC50 in assay [1] is 1340 nM; in assay [2], 5 nM.

Take `CCc1c(F)ccc2cc(O)cc(-c3ncc4c(N5C[C@@H](O)[C@@H](O)C5)nc(OC[C@@]56CCCN5C[C@H](F)C6)nc4c3F)c12` [Example 11, (3S,4R)-1-(7-(8-Ethyl-7-fluoro-3-hydroxynaphthalen-1-yl)-8-fluoro-2-(((2R,7aS)-2-fluorotetrahydro-1H-pyrrolizin-7a(5H)-yl)methoxy)pyrido[4,3-d]pyrimidin-4-yl)pyrrolidine-3,4-diol]: the 50% inhibitory concentration (IC50) in assay [1] was above 10000 nM; in assay [2] it was 3 nM.

On to `Oc1cc(-c2ncc3c(N4CCC[C@@H](O)C4)nc(OC[C@@]45CCCN4C[C@H](F)C5)nc3c2F)c2c(F)c(F)ccc2c1` [Example 12, (R)-1-(7-(7,8-Difluoro-3-hydroxynaphthalen-1-yl)-8-fluoro-2-(((2R,7aS)-2-fluorotetrahydro-1H-pyrrolizin-7a(5H)-yl)methoxy)pyrido[4,3-d]pyrimidin-4-yl)piperidin-3-ol], for which the IC50 in assay [1] is 377 nM; in assay [2], 2 nM.

As for `CCc1cccc2cc(O)cc(-c3ncc4c(N5CCC[C@@H](O)C5)nc(OC[C@@]56CCCN5C[C@H](F)C6)nc4c3F)c12` [Example 13, (R)-1-(7-(8-Ethyl-3-hydroxynaphthalen-1-yl)-8-fluoro-2-(((2R,7aS)-2-fluorotetrahydro-1H-pyrrolizin-7a(5H)-yl)methoxy)pyrido[4,3-d]pyrimidin-4-yl)piperidin-3-ol], the figures for the half-inhibitory concentration (IC50) in assay [1] and in assay [2] were 107 nM and 2 nM, respectively.

On to `CCc1c(F)ccc2cc(O)cc(-c3ncc4c(N5C[C@H]6CC[C@@H]5C(O)C6)nc(OC[C@@]56CCCN5C[C@H](F)C6)nc4c3F)c12` (stereo partly drawn) [Example 17, (1R,4S)-2-(7-(8-Ethyl-7-fluoro-3-hydroxynaphthalen-1-yl)-8-fluoro-2-(((2R,7aS)-2-fluorotetrahydro-1H-pyrrolizin-7a(5H)-yl)methoxy)pyrido[4,3-d]pyrimidin-4-yl)-2-azabicyclo[2.2.2]octan-6-ol], for which the values for the IC50 in assay [1] and in assay [2] were 3180 nM and 38 nM, respectively.

Turning to `Oc1cc(-c2ncc3c(N4CC5CC(O)C(C5)C4)nc(OC[C@@]45CCCN4C[C@H](F)C5)nc3c2F)c2c(F)c(F)ccc2c1` (stereo partly drawn) [Example 18, 3-(7-(7,8-Difluoro-3-hydroxynaphthalen-1-yl)-8-fluoro-2-(((2R,7aS)-2-fluorotetrahydro-1H-pyrrolizin-7a(5H)-yl)methoxy)pyrido[4,3-d]pyrimidin-4-yl)-3-azabicyclo[3.2.1]octan-6-ol], the IC50 in assay [1] was 105 nM; in assay [2], 3 nM.

As to `CCc1c(F)ccc2cc(O)cc(-c3ncc4c(N5CCCC(CO)(CCl)C5)nc(OC[C@@]56CCCN5C[C@H](F)C6)nc4c3F)c12` (stereo partly drawn) [Example 22, 4-(4-(3-(Chloromethyl)-3-(hydroxymethyl)piperidin-1-yl)-8-fluoro-2-(((2R,7aS)-2-fluorotetrahydro-1H-pyrrolizin-7a(5H)-yl)methoxy)pyrido[4,3-d]pyrimidin-7-yl)-5-ethyl-6-fluoronaphthalen-2-ol], the IC50 in assay [1] turned out to be 297 nM; in assay [2], 4 nM.

As to `C[C@@]1(O)CCCN(c2nc(OC[C@@]34CCCN3C[C@H](F)C4)nc3c(F)c(-c4cccc5ccc(F)c(F)c45)ncc23)C1` [Example 49, (R)-1-(7-(7,8-Difluoronaphthalen-1-yl)-8-fluoro-2-(((2R,7aS)-2-fluorotetrahydro-1H-pyrrolizin-7a(5H)-yl)methoxy)pyrido[4,3-d]pyrimidin-4-yl)-3-methylpiperidin-3-ol], the IC50 was 991 nM in assay [1] and 17 nM in assay [2].

For `C#Cc1c(F)ccc2cc(O)cc(-c3ncc4c(N5CCCC(C)(O)C5)nc(OCC56CCCN5CC(F)C6)nc4c3F)c12` [Example 52, (R)-1-(7-(8-Ethynyl-7-fluoro-3-hydroxynaphthalen-1-yl)-8-fluoro-2-(((2R,7aS)-2-fluorotetrahydro-1H-pyrrolizin-7a(5H)-yl)methoxy)pyrido[4,3-d|pyrimidin-4-yl)-3-methylpiperidin-3-ol], the IC50 in assay [1] came out at 8 nM; in assay [2], 1 nM.

In the case of `C[C@@]1(O)CCCN(c2nc(OC[C@@]34CCCN3C[C@H](F)C4)nc3c(F)c(-c4cc(O)cc5ccc(F)c(Cl)c45)ncc23)C1` [Example 56, (R)-1-(7-(8-Chloro-7-fluoro-3-hydroxynaphthalen-1-yl)-8-fluoro-2-(((2R,7aS)-2-fluorotetrahydro-1H-pyrrolizin-7a(5H)-yl)methoxy)pyrido[4,3-d]pyrimidin-4-yl)-3-methylpiperidin-3-ol], the IC50 in assay [1] is 33 nM; in assay [2], 1 nM.

As for `C[C@@]1(O)CCCN(c2nc(OC[C@@]34CCCN3C[C@H](F)C4)nc3c(F)c(-c4cc(O)cc5cccc(F)c45)ncc23)C1` [Example 57, (R)-1-(8-Fluoro-7-(8-fluoro-3-hydroxynaphthalen-1-yl)-2-(((2R,7aS)-2-fluorotetrahydro-1H-pyrrolizin-7a(5H)-yl)methoxy)pyrido[4,3-d]pyrimidin-4-yl)-3-methylpiperidin-3-ol], the IC50 in assay [1] stood at 115 nM; in assay [2], 2 nM.

Turning to `CCc1cccc2cc(O)cc(-c3ncc4c(N5CCC[C@@](C)(O)C5)nc(OC[C@@]56CCCN5C[C@H](F)C6)nc4c3F)c12` [Example 58, (R)-1-(7-(8-Ethyl-3-hydroxynaphthalen-1-yl)-8-fluoro-2-(((2R,7aS)-2-fluorotetrahydro-1H-pyrrolizin-7a(5H)-yl)methoxy)pyrido[4,3-d]pyrimidin-4-yl)-3-methylpiperidin-3-ol], the results for the IC50 in assay [1] and in assay [2] were 9 nM and 1 nM, respectively.

For `C[C@@]1(O)CCCN(c2nc(OC[C@@]34CCCN3C[C@H](F)C4)nc3c(F)c(-c4cc(O)cc5ccccc45)ncc23)C1` [Example 60, (R)-1-(8-Fluoro-2-(((2R,7aS)-2-fluorotetrahydro-1H-pyrrolizin-7a(5H)-yl)methoxy)-7-(3-hydroxynaphthalen-1-yl)pyrido[4,3-d]pyrimidin-4-yl)-3-methylpiperidin-3-ol], the IC50 is 330 nM in assay [1] and 2 nM in assay [2].

For the compound `CCc1c(F)ccc2cc(O)cc(-c3ncc4c(N5CCCC(O)(CC)C5)nc(OC[C@@]56CCCN5C[C@H](F)C6)nc4c3F)c12` (stereo partly drawn) [Example 65, 3-Ethyl-1-(7-(8-ethyl-7-fluoro-3-hydroxynaphthalen-1-yl)-8-fluoro-2-(((2R,7aS)-2-fluorotetrahydro-1H-pyrrolizin-7a(5H)-yl)methoxy)pyrido[4,3-d]pyrimidin-4-yl)piperidin-3-ol], the IC50 in assay [1] came to 153 nM; in assay [2], 3 nM.

For `CCc1c(F)ccc2cc(O)cc(-c3ncc4c(N5CCC[C@](C)(CO)C5)nc(OC[C@@]56CCCN5C[C@H](F)C6)nc4c3F)c12` [Example 66, 5-Ethyl-6-fluoro-4-(8-fluoro-2-(((2R,7aS)-2-fluorotetrahydro-1H-pyrrolizin-7a(5H)-yl)methoxy)-4-((S)-3-(hydroxymethyl)-3-methylpiperidin-1-yl)pyrido[4,3-d]pyrimidin-7-yl)naphthalen-2-ol], the figures for the IC50 in assay [1] and in assay [2] were 754 nM and 18 nM, respectively.

Take `CCc1c(F)ccc2cc(O)cc(-c3ncc4c(N5CCC[C@@](C)(CO)C5)nc(OC[C@@]56CCCN5C[C@H](F)C6)nc4c3F)c12` [Example 67, 5-Ethyl-6-fluoro-4-(8-fluoro-2-(((2R,7aS)-2-fluorotetrahydro-1H-pyrrolizin-7a(5H)-yl)methoxy)-4-((R)-3-(hydroxymethyl)-3-methylpiperidin-1-yl)pyrido[4,3-d]pyrimidin-7-yl)naphthalen-2-ol]: the values for the half-inhibitory concentration (IC50) in assay [1] and in assay [2] were 816 nM and 19 nM, respectively.

`CCc1c(F)ccc2cc(O)cc(-c3ncc4c(N5CCCC(C)(C(N)=O)C5)nc(OC[C@@]56CCCN5C[C@H](F)C6)nc4c3F)c12` (stereo partly drawn) [Example 68, 1-(7-(8-Ethyl-7-fluoro-3-hydroxynaphthalen-1-yl)-8-fluoro-2-(((2R,7aS)-2-fluorotetrahydro-1H-pyrrolizin-7a(5H)-yl)methoxy)pyrido[4,3-d]pyrimidin-4-yl)-3-methylpiperidine-3-carboxamide]: the IC50 in assay [1] was 1690 nM; in assay [2], 8 nM.
